“Also recorded” adds a separate entry of the source.
Legend:
[1] = target: T1, cynomolgus CD3 (mfCD3 engineered Jurkat cell line) (Macaca fascicularis, UniProt Q95LI5+Q95LI8); assay: FACS binding to mfCD3 engineered Jurkat cells; conditions: median EC50, FACS binding
T1 construct: expressed in transfected cells; host or cells: Jurkat cells, CRISPR/Cas9-engineered (mfCD3 engineered Jurkat cell line)
Experimental: Flow cytometric analysis was utilized to determine binding of BCMA×CD3 bispecific antibodies to human and cynomolgus CD3 (Jurkat cells, mfCD3 engineered Jurkat cells, primary human CD8+ and cynomolgus CD8+ T cells). Briefly, 1e05 cells/well were incubated in the presence of FACS wash with block (PBS+1% filtered FBS+5% mouse serum) with a serial dilution of BCMA×CD3 and control antibodies for 30 minutes on ice. After incubation, the cells were washed twice with cold FACS wash (PBS+1% filtered FBS) and bound antibody was detected by incubating with Alexa647-conjugated anti-human secondary antibody on ice for an additional 30 minutes. Wells containing no antibody or secondary only were used as a control. For the detection of monkey and human T cells, a cocktail of human and cynomolgus cross-reactive antibodies to CD4, CD8 and CD16 was added to the anti-human secondary. After incubation, cells were washed, re-suspended in 200 μL cold PBS containing 1% filtered FBS and analyzed by flow cytometry on a BD FACS Canto II. Cells were gated by FSC-H by FSC-A to select singlet events, followed by side and forward scatters to select for live events. For monkey T cells, additional gating on CD8+/CD16− cells was performed.
EC50 values for FACS binding were calculated using 4-parameter non-linear regression analysis in Prism software. […]

[2] = test system: Jurkat/NFATLuc.3C7 cells + MM1-S cells; assay: Jurkat/NFATLuc reporter bioassay with MM1-S cells; assay type: cell-based; conditions: highest RLU / lowest RLU
Experimental: (§1) Activity of the anti-BCMA×anti-CD3 bispecific antibodies were assessed in a Jurkat/NFATLuc reporter bioassay utilizing several cell lines with varying levels of BCMA surface expression. The Jurkat cells were engineered to express an NFAT-luciferase reporter (Jurkat/NFATLuc.3C7), and 50,000 Jurkat reporter cells were combined with 50,000 BCMA positive (Daudi, MM1-S, NCI-H929, OPM-2, RPMI-8226, MOLP-8, or Raji) or BCMA negative (HEK293) cells in Thermo Nunclon delta 96 well white microwell plates (Thermo Scientific, Cat #136102) in 50 ul of assay media (RPMI media with 10% FBS and 1% P/S/G). Three-fold serial dilutions of the BCMA×CD3 bispecific antibodies (mAb25441 D or mAb25442D), or a bivalent anti-BCMA antibody (mAb21581) were immediately added in 50 μL of assay buffer. The plates were gently agitated and incubated in a 37° C., 5% CO2 incubator for 4-6 hours. NFAT-Luciferase activity was determined using Promega One-Glo (Cat #E6130) and a Perkin Elmer Envision plate reader. RLU were plotted in GraphPad Prism using a four-parameter logistic equation over a 12-point response curve to calculate EC50 values. […] The signal to noise (S:N) is determined by taking the ratio of the highest RLU on the curve to the lowest.

[3] = test system: Jurkat/NFATLuc.3C7 cells + Raji cells; assay: Jurkat/NFATLuc reporter bioassay with Raji cells; assay type: cell-based; conditions: highest RLU / lowest RLU
Experimental: as §1

[4] = test system: Jurkat/NFATLuc.3C7 cells + HEK293 (BCMA negative) cells; assay: Jurkat/NFATLuc reporter bioassay with HEK293 cells; assay type: cell-based; conditions: highest RLU / lowest RLU
Experimental: as §1

[5] = test system: established BCMA-expressing NCI-H929 tumors; assay: Established NCI-H929 + PBMC xenogenic tumor model, treatment from day 5 (Example 12); assay type: in vivo, mouse; conditions: for Average Tumor Size (mm3) ± SEM on Day 5: Day 5 (day of first dose)
Experimental: To determine the in vivo efficacy of anti-BCMA×anti-CD3 bispecific antibodies (Abs), a xenogenic tumor study was performed. Immunodeficient NOD.Cg-Prkdc^scidIl2rg^tm1Wji/SzJ (NSG) mice were subcutaneously implanted with a mixture of 10×10^6 BCMA-expressing NCI-H929 human multiple myeloma tumor cells and 0.5×10^6 human peripheral blood mononuclear cells (PBMC) isolated from a normal, healthy donor. The tumors were allowed to grow and establish for 5 days until they were approximately 70 mm^3 in size. […] The mice were administered these Abs twice per week for a total of seven doses, and tumor growth was assessed over 55 days. While BCMA^+ NCI-H929 tumors grew similarly in the vehicle- and CD3-binding control-treated mice, both BCMA×CD3 Abs that were tested shrank established tumors and prevented the growth of tumors in a dose-dependent manner in vivo.
Implantation and measurement of xenogenic tumors: NSG mice were subcutaneously implanted with a mixture of 10×10^6 BCMA-expressing NCI-H929 multiple myeloma cells and 0.5×10^6 PBMC derived from a normal, healthy donor. The tumors were allowed to grow and establish for 5 days until they were approximately 70 mm^3 in size. […] The mice were administered Abs twice per week for a total of seven doses. Tumor growth was measured with calipers twice per week for the duration of the experiment.
Calculation of xenogenic tumor growth and inhibition: In order to determine tumor volume by external caliper, the greatest longitudinal diameter (length in mm) and the greatest transverse diameter (width in mm) were determined. Tumor volumes based on caliper measurements were calculated by the formula: Volume (mm^3) […] (length×width^2)/2.

T1 sequence (Q95LI5 22-198, change not shown): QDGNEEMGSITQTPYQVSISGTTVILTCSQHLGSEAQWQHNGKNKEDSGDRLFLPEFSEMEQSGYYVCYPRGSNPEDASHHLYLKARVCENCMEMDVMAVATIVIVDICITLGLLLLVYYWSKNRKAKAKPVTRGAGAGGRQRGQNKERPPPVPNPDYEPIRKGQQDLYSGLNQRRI
T1 sequence (Q95LI8 22-171, change not shown): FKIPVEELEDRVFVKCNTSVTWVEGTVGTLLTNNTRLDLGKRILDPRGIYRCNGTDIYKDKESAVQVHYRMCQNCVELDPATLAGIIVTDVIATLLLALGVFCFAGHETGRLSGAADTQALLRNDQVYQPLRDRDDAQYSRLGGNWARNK
T1 sequence (P09693 23-182 partner): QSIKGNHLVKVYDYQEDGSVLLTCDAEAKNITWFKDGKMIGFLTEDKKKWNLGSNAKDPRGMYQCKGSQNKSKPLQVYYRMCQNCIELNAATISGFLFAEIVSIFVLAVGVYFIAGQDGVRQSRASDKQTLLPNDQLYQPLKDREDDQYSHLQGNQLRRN
T1 sequence (P20963 22-164 partner): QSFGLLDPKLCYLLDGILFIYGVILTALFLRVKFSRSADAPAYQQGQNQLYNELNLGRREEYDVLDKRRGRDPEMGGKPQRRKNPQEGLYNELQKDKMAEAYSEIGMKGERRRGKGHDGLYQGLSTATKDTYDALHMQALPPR

Row | Substance | S:N [2] | S:N [3] | S:N [4] | Average Tumor Size (mm3) ± SEM on Day 5 ([5]; 0.04 mg/kg) [mm3] | Average Tumor Size (mm3) ± SEM on Day 8 ([5]; 0.04 mg/kg) [mm3] | Average Tumor Size (mm3) ± SEM on Day 12 ([5]; 0.04 mg/kg) [mm3] | Average Tumor Size (mm3) ± SEM on Day 15 ([5]; 0.04 mg/kg) [mm3] | Average Tumor Size (mm3) ± SEM on Day 19 ([5]; 0.04 mg/kg) [mm3] | Average Tumor Size (mm3) ± SEM on Day 22 ([5]; 0.04 mg/kg) [mm3] | Average Tumor Size (mm3) ± SEM on Day 5 ([5]; 0.4 mg/kg) [mm3] | Average Tumor Size (mm3) ± SEM on Day 8 ([5]; 0.4 mg/kg) [mm3] | Average Tumor Size (mm3) ± SEM on Day 12 ([5]; 0.4 mg/kg) [mm3] | Average Tumor Size (mm3) ± SEM on Day 15 ([5]; 0.4 mg/kg) [mm3] | Average Tumor Size (mm3) ± SEM on Day 19 ([5]; 0.4 mg/kg) [mm3] | Average Tumor Size (mm3) ± SEM on Day 22 ([5]; 0.4 mg/kg) [mm3] | Average Tumor Size (mm3) ± SEM on Day 27 ([5]; 0.4 mg/kg) [mm3] | Average Tumor Size (mm3) ± SEM on Day 30 ([5]; 0.4 mg/kg) [mm3] | Average Tumor Size (mm3) ± SEM on Day 35 ([5]; 0.4 mg/kg) [mm3] | Average Tumor Size (mm3) ± SEM on Day 40 ([5]; 0.4 mg/kg) [mm3] | Average Tumor Size (mm3) ± SEM on Day 55 ([5]; 0.4 mg/kg) [mm3] | other results
1 | REGN5458: anti-BCMA×anti-CD3 bispecific antibody: BCMA HCVR of mAb21581 (SEQ 66), CD3 HCVR of mAb7221G (SEQ 90), common LCVR SEQ 82 | 165 | 123 | 1 | 58.1 ± 5.6 | 130.3 ± 16.7 | 525.9 ± 71.5 | 1031.2 ± 164.3 | 2467.5 ± 370.0 | 3745.7 ± 541.2 | 69.3 ± 7.3 | 120.3 ± 16.3 | 262.7 ± 61.6 | 476.2 ± 133.5 | 1347.5 ± 334.7 | 2068.5 ± 465.0 | 3463.9 ± 1025.0 | 2144.2 ± 2144.2 | 0 ± 0 | 0 ± 0 | 0 ± 0 | EC50 [1]: 15.1 nM; Average Tumor Size (mm3) ± SEM on Day 27 ([5]; 0.04 mg/kg): 1589.1 ± 0 mm3; Average Tumor Size (mm3) ± SEM on Day 30 ([5]; 0.04 mg/kg): 2886.5 ± 0 mm3; Average Tumor Size (mm3) ± SEM on Day 5 ([5]; 4 mg/kg): 71.9 ± 10.3 mm3; Average Tumor Size (mm3) ± SEM on Day 8 ([5]; 4 mg/kg): 64.7 ± 16.4 mm3; Average Tumor Size (mm3) ± SEM on Day 12 ([5]; 4 mg/kg): 19.5 ± 10.9 mm3; Average Tumor Size (mm3) ± SEM on Day 15 ([5]; 4 mg/kg): 25.6 ± 19.2 mm3; Average Tumor Size (mm3) ± SEM on Day 19 ([5]; 4 mg/kg): 40.6 ± 32.8 mm3; Average Tumor Size (mm3) ± SEM on Day 22 ([5]; 4 mg/kg): 78.3 ± 60.8 mm3; Average Tumor Size (mm3) ± SEM on Day 27 ([5]; 4 mg/kg): 252.3 ± 185.1 mm3; Average Tumor Size (mm3) ± SEM on Day 30 ([5]; 4 mg/kg): 411.3 ± 307.2 mm3; Average Tumor Size (mm3) ± SEM on Day 35 ([5]; 4 mg/kg): 633.5 ± 473.5 mm3; Average Tumor Size (mm3) ± SEM on Day 40 ([5]; 4 mg/kg): 369.5 ± 369.5 mm3; Average Tumor Size (mm3) ± SEM on Day 55 ([5]; 4 mg/kg): 0 ± 0 mm3
2 | REGN5459: anti-BCMA×anti-CD3 bispecific antibody: BCMA HCVR of mAb21581 (SEQ 66), CD3 HCVR of mAb7221G20 (SEQ 98), common LCVR SEQ 82 | 120 | 78 | 1 | 74.9 ± 6.4 | 152.3 ± 20.0 | 462.5 ± 57.7 | 1094.2 ± 78.9 | 2412.5 ± 184.6 | 3285.9 ± 227.3 | 69.5 ± 4.1 | 171.9 ± 23.2 | 233.8 ± 63.5 | 327.2 ± 135.6 | 606.2 ± 288.8 | 815.4 ± 387.1 | 1849.9 ± 903.1 | 661.8 ± 490.1 | 996.8 ± 771.0 | 375.6 ± 375.6 | 0 ± 0 | Jurkat-mfCD3 EC50 [M] [1]: did not bind; also recorded: No Binding; Average Tumor Size (mm3) ± SEM on Day 5 ([5]; 4 mg/kg): 61.8 ± 5.2 mm3; Average Tumor Size (mm3) ± SEM on Day 8 ([5]; 4 mg/kg): 45.8 ± 9.8 mm3; Average Tumor Size (mm3) ± SEM on Day 15 ([5]; 4 mg/kg): 0 ± 0 mm3; Average Tumor Size (mm3) ± SEM on Day 19 ([5]; 4 mg/kg): 0 ± 0 mm3; Average Tumor Size (mm3) ± SEM on Day 22 ([5]; 4 mg/kg): 0 ± 0 mm3; Average Tumor Size (mm3) ± SEM on Day 27 ([5]; 4 mg/kg): 0 ± 0 mm3; Average Tumor Size (mm3) ± SEM on Day 30 ([5]; 4 mg/kg): 0 ± 0 mm3; Average Tumor Size (mm3) ± SEM on Day 35 ([5]; 4 mg/kg): 0 ± 0 mm3; Average Tumor Size (mm3) ± SEM on Day 40 ([5]; 4 mg/kg): 0 ± 0 mm3; Average Tumor Size (mm3) ± SEM on Day 55 ([5]; 4 mg/kg): 0 ± 0 mm3

Reference: patent US20260008862A1, “Bispecific Anti-BCMA x Anti-CD3 Antibodies and Uses Thereof” (Regeneron Pharmaceuticals, Inc., priority 2018, published 2026)
